Here are results for 32 compounds from patent publication US20230348369A1 (Cytokinetics, Inc., priority 2020, published 2023).

SMILES strings stand for the structures. Read-outs that look alike come from different tables or passages of the source.

The target in this test is human NAMPT (Homo sapiens, UniProt P43490). Nature of the test: Human recombinant enzyme assay (NMN fluorescence biochemical assay, activation of NAMPT). As to the method: Compounds described herein were assayed for their ability to stimulate the synthesis of nicotinamide mononucleotide (NMN) by the enzyme NAMPT. The human recombinant enzyme assay measures the activation of the enzyme activity by compounds using recombinant enzyme and substrates in a buffered cell-free system. The assay conditions closely mimic cellular environments. Dose responses were measured using an assay to detect the formation of nicotinamide mono-nucleotide. All experiments were performed in the 384-well format. […] Enzyme reactions were initiated with the addition of 10 μL of a solution containing the substrates. The final assay conditions were as follows: 6 nM human NAMPT, 2.5 mM ATP, 20 μM PRPP and 150 μM nicotinamide in 50 mM HEPES, pH 7.2, 1 mM DTT, 1 mM CHAPS 50 mM NaCl, 100 mM MgCl2. Following an incubation of 60 min at ambient temperature, 10 μL of 20% acetophenone in DMSO was added, followed by 10 μL of 2 M KOH and 40 μL of formic acid. The plates were read for fluorescence (Excitation/Emission=355 nm/460 nm) using an EnVision plate reader after 40 mins of incubation at ambient temperature.

Setting [1] is: Table A, human recombinant NAMPT, NMN formation, 60 min.
The mark [2] stands for this setting: Table A, human recombinant NAMPT, NMN formation, 60 min, read-out: EC50 Human.

Chain of human NAMPT (P43490 whole entry): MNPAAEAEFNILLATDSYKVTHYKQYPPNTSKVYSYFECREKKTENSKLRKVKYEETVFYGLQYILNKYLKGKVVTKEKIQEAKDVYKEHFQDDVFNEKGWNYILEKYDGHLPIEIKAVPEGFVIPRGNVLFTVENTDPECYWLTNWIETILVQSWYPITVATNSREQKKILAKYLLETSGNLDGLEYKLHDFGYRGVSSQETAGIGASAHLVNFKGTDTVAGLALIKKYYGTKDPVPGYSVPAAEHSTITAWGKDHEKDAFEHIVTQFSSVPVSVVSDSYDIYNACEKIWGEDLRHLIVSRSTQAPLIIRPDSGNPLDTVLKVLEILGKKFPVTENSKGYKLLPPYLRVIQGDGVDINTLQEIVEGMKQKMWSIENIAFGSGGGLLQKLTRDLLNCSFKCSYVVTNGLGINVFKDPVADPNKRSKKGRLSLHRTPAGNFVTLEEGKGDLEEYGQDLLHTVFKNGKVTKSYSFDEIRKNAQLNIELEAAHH

As for `CC(C)(C)OC(=O)NC1CC2(CC(NC(=O)NCc3cn[nH]c3)C2)C1` (centres unmarked) [Compound 10, tert-butyl (6-(3-((1H-pyrazol-4-yl)methyl)ureido)spiro[3.3]heptan-2-yl)carbamate], under setting [1], the “AC1.4 Human” value turned out to be 5.8 µM. Also, the EC50 under setting [2] worked out at 50.7 µM.
For the compound `CC(C)(C)OC(=O)NC1CC2(CC(NC(=O)NCc3cnco3)C2)C1` (centres unmarked) [Compound 11, tert-butyl (6-(3-(oxazol-5-ylmethyl)ureido)spiro[3.3]heptan-2-yl)carbamate], the “AC1.4 Human” value under setting [1] stood at 11.5 µM.
Take `CC(C)(C)OC(=O)NC1CCC(NC(=O)NCc2ccc(C(N)=O)cc2)CC1` (centres unmarked) [Compound 12, tert-butyl (4-(3-(4-carbamoylbenzyl)ureido)cyclohexyl)carbamate]: the concentration for a half-maximal effect (EC50) under setting [2] turned out to be 40 µM.
As to `NC(=O)c1ccc(CNC(=O)NC2CCN(C(=O)c3ccccc3)CC2)cc1` [Compound 13, 4-((3-(1-benzoylpiperidin-4-yl)ureido)methyl)benzamide], the “AC1.4 Human” value under setting [1] turned out to be 17.5 µM.
On to `O=C(NCc1ccncc1)NC1CC2(C1)CC(NC(=O)c1ccccc1)C2` (centres unmarked) [Compound 15, N-(6-(3-(pyridin-4-ylmethyl)ureido)spiro[3.3]heptan-2-yl)benzamide], for which the “AC1.4 Human” value under setting [1] came to 10.4 µM. The EC50 under setting [2] worked out at 17.7 µM.
For `O=C(NCc1cn[nH]c1)NC1CC2(C1)CC(NC(=O)c1ccccc1)C2` (centres unmarked) [Compound 17, N-(6-(3-((1H-pyrazol-4-yl)methyl)ureido)spiro[3.3]heptan-2-yl)benzamide], the “AC1.4 Human” value under setting [1] is 17.6 µM. For the same compound, under setting [2], the concentration giving a half-maximal response (EC50) is 50.5 µM.
Consider `COc1ccc(CNC(=O)NC2CC3(C2)CC(NC(=O)c2ccccc2)C3)cc1` (centres unmarked) [Compound 18, N-(6-(3-(4-methoxybenzyl)ureido)spiro[3.3]heptan-2-yl)benzamide], for which the “AC1.4 Human” value under setting [1] was found to be 18.9 µM. Moreover, under setting [2], the EC50 came to 60.2 µM.
For `NC(=O)c1ccc(CNC(=O)N[C@H]2C[C@H](C(=O)NCc3ccccc3)C2)cc1` [Compound 21, 4-((3-((1r,3r)-3-(benzylcarbamoyl)cyclobutyl)ureido)methyl)benzamide], the “AC1.4 Human” value under setting [1] was 8.0 µM. The EC50 under setting [2] stood at 45 µM.
Take `NC(=O)c1ccc(CNC(=O)NC2CC3(CC(NCc4ccccc4)C3)C2)cc1` (centres unmarked) [Compound 24]: under setting [1], the “AC1.4 Human” value is 8.1 µM. In addition, under setting [2], the EC50 is 29.1 µM.
On to `CC(C)(C)OC(=O)N1CCC2(CC1)CC2CNC(=O)NCc1ccncc1` (centres unmarked) [Compound 25, tert-butyl 1-((3-(pyridin-4-ylmethyl)ureido)methyl)-6-azaspiro[2.5]octane-6-carboxylate], for which the “AC1.4 Human” value under setting [1] came to 5.0 µM. The 50% effective concentration (EC50) under setting [2] was 27.4 µM.
As for `NC(=O)c1ccc(CNC(=O)NC2CC3(C2)CC(Nc2ccccn2)C3)cc1` (centres unmarked) [Compound 26, 4-((3-(6-(pyridin-2-ylamino)spiro[3.3]heptan-2-yl)ureido)methyl)benzamide], the EC50 was found to be 16.7 µM. The “AC1.4 Human” value under setting [1] was determined as 2.0 µM.
Take `COc1ccc(CNC(=O)NCC2CC23CCN(C(=O)OC(C)(C)C)CC3)cc1` (centres unmarked) [Compound 28, tert-butyl 1-((3-(4-methoxybenzyl)ureido)methyl)-6-azaspiro[2.5]octane-6-carboxylate]: the EC50 under setting [2] is 42.5 µM.
With `CC(C)(C)OC(=O)N1CCC2(CC1)CC2CNC(=O)NCc1cnco1` (centres unmarked) [Compound 30, tert-butyl 1-((3-(oxazol-5-ylmethyl)ureido)methyl)-6-azaspiro[2.5]octane-6-carboxylate], the EC50 under setting [2] came to 37.9 µM.
On to `CC(C)(C)OC(=O)N1CCC2(CC1)CC2CNC(=O)NCc1cn[nH]c1` (centres unmarked) [Compound 31, tert-butyl 1-((3-((1H-pyrazol-4-yl)methyl)ureido)methyl)-6-azaspiro[2.5]octane-6-carboxylate], for which the “AC1.4 Human” value under setting [1] was 3.2 µM. In addition, the concentration for a half-maximal effect (EC50) under setting [2] came to 40.1 µM.
Consider `NC(=O)c1ccc(CNC(=O)NC2CC3(CC(NCc4ccccn4)C3)C2)cc1` (centres unmarked) [Compound 34, 4-((3-(6-((pyridin-2-ylmethyl)amino)spiro[3.3]heptan-2-yl)ureido)methyl)benzamide], for which, under setting [1], the “AC1.4 Human” value turned out to be 12.1 µM. The EC50 under setting [2] was determined as 37.7 µM.
With `COC(=O)C1CC2(CC(NC(=O)NCc3ccc(OC)cc3)C2)C1` (centres unmarked) [Compound 35, Methyl 6-(3-(4-methoxybenzyl)ureido)spiro[3.3]heptane-2-carboxylate], the “AC1.4 Human” value under setting [1] is 15.4 µM. Also, the EC50 under setting [2] stood at 40.2 µM.
In the same order, the values of `COc1ccc(CNC(=O)NCCCCCNC(=O)OC(C)(C)C)cc1` [Compound 36, tert-butyl (5-(3-(4-methoxybenzyl)ureido)pentyl)carbamate] are 9.8 µM and 35.4 µM.
For `COc1ccc(CNC(=O)NC2CC3(C2)CN(C(=O)OC(C)(C)C)C3)cc1` [Compound 37, tert-butyl 6-(3-(4-methoxybenzyl)ureido)-2-azaspiro[3.3]heptane-2-carboxylate], the “AC1.4 Human” value under setting [1] worked out at 4.2 µM. The EC50 under setting [2] is 58.9 µM.
With `COc1ccc(CNC(=O)NC2CC3(C2)CN(C(=O)Cc2ccccc2F)C3)cc1` [Compound 38, 1-(2-(2-(2-fluorophenyl)acetyl)-2-azaspiro[3.3]heptan-6-yl)-3-(4-methoxybenzyl)urea], the EC50 is 43.7 µM. Moreover, the “AC1.4 Human” value under setting [1] worked out at 13.7 µM.
For `COc1ccc(CNC(=O)NC2CC3(C2)CN(C(=O)Cc2ccccc2Cl)C3)cc1` [Compound 39, 1-(2-(2-(2-chlorophenyl)acetyl)-2-azaspiro[3.3]heptan-6-yl)-3-(4-methoxybenzyl)urea], the “AC1.4 Human” value under setting [1] is 5.6 µM. Further, the EC50 under setting [2] was found to be 41.9 µM.
In the case of `COc1ccc(CNC(=O)NC2CC3(C2)CN(C(=O)Cc2ccccc2OC)C3)cc1` [Compound 40, 1-(4-methoxybenzyl)-3-(2-(2-(2-methoxyphenyl)acetyl)-2-azaspiro[3.3]heptan-6-yl)urea], the “AC1.4 Human” value under setting [1] amounted to 17.2 µM. In addition, the EC50 under setting [2] came out at 24 µM.
As for `COc1ccc(CNC(=O)NC2CC3(C2)CN(C(=O)Cc2ccccc2C(F)(F)F)C3)cc1` [Compound 41, 1-(4-methoxybenzyl)-3-(2-(2-(2-(trifluoromethyl)phenyl)acetyl)-2-azaspiro[3.3]heptan-6-yl)urea], the “AC1.4 Human” value under setting [1] is 5.0 µM. For the same compound, the EC50 under setting [2] worked out at 53.5 µM.
On to `COc1ccc(CNC(=O)NC2CC3(C2)CN(C(=O)Cc2ccccc2C)C3)cc1` [Compound 42, 1-(4-methoxybenzyl)-3-(2-(2-(o-tolyl)acetyl)-2-azaspiro[3.3]heptan-6-yl)urea], for which the “AC1.4 Human” value under setting [1] came to 10.7 µM. Besides, the EC50 under setting [2] stood at 42.2 µM.
For the compound `COc1ccc(CNC(=O)NC2CC3(C2)CC(C(=O)NC2(c4ccccc4)CC2)C3)cc1` (centres unmarked) [Compound 43, 6-(3-(4-methoxybenzyl)ureido)-N-(1-phenylcyclopropyl)spiro[3.3]heptane-2-carboxamide], the “AC1.4 Human” value under setting [1] came out at 4.9 µM. Besides, under setting [2], the concentration giving a half-maximal response (EC50) was 46.4 µM.
Turning to `COc1ccc(CNC(=O)NC2CC3(C2)CC(C(=O)N2CCCC2c2ccccc2)C3)cc1` (centres unmarked) [Compound 44, 1-(4-methoxybenzyl)-3-(6-(2-phenylpyrrolidine-1-carbonyl)spiro[3.3]heptan-2-yl)urea], the “AC1.4 Human” value under setting [1] amounted to 10.1 µM. Also, under setting [2], the concentration giving a half-maximal response (EC50) came out at 36.5 µM.
Regarding `COc1ccc(CNC(=O)NC2CC3(C2)CC(C(=O)N[C@H](C)c2ccccc2)C3)cc1` (stereo partly drawn) [Compound 45, (R)-6-(3-(4-methoxybenzyl)ureido)-N-(1-phenylethyl)spiro[3.3]heptane-2-carboxamide], the 50% effective concentration (EC50) was determined as 51.7 µM. In addition, under setting [1], the “AC1.4 Human” value was determined as 6.6 µM.
Turning to `COc1ccc(CNC(=O)NC2CC3(C2)CC(C(=O)N[C@H](CO)c2ccccc2)C3)cc1` (stereo partly drawn) [Compound 46, (S)-N-(2-hydroxy-1-phenylethyl)-6-(3-(4-methoxybenzyl)ureido)spiro[3.3]heptane-2-carboxamide], the “AC1.4 Human” value under setting [1] was determined as 6.8 µM. The EC50 under setting [2] is 41.3 µM.
As to `COc1ccc(CNC(=O)NC2CC3(C2)CC(C(=O)N[C@@H](C)c2ccccc2)C3)cc1` (stereo partly drawn) [Compound 47, (S)-6-(3-(4-methoxybenzyl)ureido)-N-(1-phenylethyl)spiro[3.3]heptane-2-carboxamide], the EC50 stood at 40.6 µM. Further, under setting [1], the “AC1.4 Human” value was 6.5 µM.
In the case of `COc1ccc(CNC(=O)NC2CC3(C2)CC(C(=O)N2CCC2c2ccccc2)C3)cc1` (centres unmarked) [Compound 48, 1-(4-methoxybenzyl)-3-(6-(2-phenylazetidine-1-carbonyl)spiro[3.3]heptan-2-yl)urea], under setting [1], the “AC1.4 Human” value came out at 4.7 µM. In addition, the concentration giving a half-maximal response (EC50) under setting [2] came to 52.1 µM.
In the case of `COc1ccc(CNC(=O)NC2CC3(C2)CC(C(=O)NCc2cccnc2)C3)cc1` (centres unmarked) [Compound 49, 6-(3-(4-methoxybenzyl)ureido)-N-(pyridin-3-ylmethyl)spiro[3.3]heptane-2-carboxamide], under setting [1], the “AC1.4 Human” value stood at 6.6 µM. Under setting [2], the EC50 is 46.8 µM.
As to `COc1ccc(CNC(=O)NC2CC3(C2)CC(C(=O)NCc2ccncc2)C3)cc1` (centres unmarked) [Compound 50, 6-(3-(4-methoxybenzyl)ureido)-N-(pyridin-4-ylmethyl)spiro[3.3]heptane-2-carboxamide], under setting [1], the “AC1.4 Human” value was found to be 17.9 µM. The EC50 under setting [2] stood at 32.8 µM.
Turning to `COc1ccc(CNC(=O)NC2CC3(C2)CC(C(=O)N(C)Cc2ccccc2)C3)cc1` (centres unmarked) [Compound 51, N-benzyl-6-(3-(4-methoxybenzyl)ureido)-N-methylspiro[3.3]heptane-2-carboxamide], under setting [1], the “AC1.4 Human” value turned out to be 1.5 µM. Besides, under setting [2], the EC50 came out at 53.1 µM.
